Results as given in PubChem BioAssay AID1963868 (Molecular Pharmacology Branch, DTP, NCI, 2024).

System: KRAS PDC tumor spheroids (HUVEC+MSC), viability
Assay: Anticancer human tumor 254851-301-R-J1-PDC patient-derived colon carcinoma cell line growth inhibition [KRAS2]
Conditions: for IC50: curve of first compound; for viability, T/C: stronger effect = lower value
Outline: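 Combination screen of spheroid viability in tumor-cell co-cultures with endothelial (HUVEC) and mesenchymal stem cell stroma. Each agent was tested in half-log dilutions, topping at clinical Cmax or at 10 microM without a known Cmax.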

[1] = second compound 0.1 µM, first compound 0.0316 µM
[2] = second compound 0.1 µM, first compound 0.1 µM
[3] = second compound 0.1 µM, first compound 0.316 µM
[4] = second compound 0.1 µM, first compound 1 µM
[5] = second compound 0.1 µM, first compound 3.16 µM
[6] = second compound 0.1 µM, first compound 10 µM
[7] = second compound 0.316 µM, first compound 0.0316 µM
[8] = second compound 0.316 µM, first compound 0.1 µM
[9] = second compound 0.316 µM, first compound 0.316 µM
[10] = second compound 0.316 µM, first compound 1 µM
[11] = second compound 0.316 µM, first compound 3.16 µM
[12] = second compound 0.316 µM, first compound 10 µM
[13] = second compound 1 µM, first compound 0.0316 µM
[14] = second compound 1 µM, first compound 0.1 µM
[15] = second compound 1 µM, first compound 0.316 µM
[16] = second compound 1 µM, first compound 1 µM
[17] = second compound 1 µM, first compound 3.16 µM
[18] = second compound 1 µM, first compound 10 µM
[19] = second compound 3.16 µM, first compound 0.0316 µM
[20] = second compound 3.16 µM, first compound 0.1 µM
[21] = second compound 3.16 µM, first compound 0.316 µM
[22] = second compound 3.16 µM, first compound 1 µM
[23] = second compound 3.16 µM, first compound 3.16 µM
[24] = second compound 3.16 µM, first compound 10 µM
[25] = second compound 10 µM, first compound 0.0316 µM
[26] = second compound 10 µM, first compound 0.1 µM
[27] = second compound 10 µM, first compound 0.316 µM
[28] = second compound 10 µM, first compound 1 µM
[29] = second compound 10 µM, first compound 3.16 µM
[30] = second compound 10 µM, first compound 10 µM
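Also: spheroids exposed to compounds for seven days before readout.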
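For viability, T/C in this document: 100% = DMSO vehicle control luminescence of the spheroids.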

Row | Structure (SMILES) | IC50 (second compound 0.1 µM) [nM] | IC50 (second compound 0.316 µM) [nM] | IC50 (second compound 1 µM) [nM] | IC50 (second compound 3.16 µM) [nM] | IC50 (second compound 10 µM) [nM] | viability, T/C [1] [%] | viability, T/C [2] [%] | viability, T/C [3] [%] | viability, T/C [4] [%] | viability, T/C [5] [%] | viability, T/C [6] [%] | viability, T/C [7] [%] | viability, T/C [8] [%] | viability, T/C [9] [%] | viability, T/C [10] [%] | viability, T/C [11] [%] | viability, T/C [12] [%] | viability, T/C [13] [%] | viability, T/C [14] [%] | viability, T/C [15] [%] | also measured
1 | CC1(C)CCC(CN2CCN(c3ccc(C(=O)NS(=O)(=O)c4ccc(NCC5CCOCC5)c([N+](=O)[O-])c4)c(Oc4cnc5[nH]ccc5c4)c3)CC2)=C(c2ccc(Cl)cc2)C1 + CC1OCC2(CCN(c3cnc(Sc4ccnc(N)c4Cl)c(N)n3)CC2)C1N | > 10000 | > 10000 | > 10000 | 5560 | 2510 | 100 | 104 | 96.7 | 100 | 97.1 | 98.4 | 83.8 | 91 | 84.3 | 84.1 | 84.3 | 65.7 | 85.1 | 89.5 | 78.6 | viability, T/C [16]: 88.6%; viability, T/C [17]: 80.7%; viability, T/C [18]: 54%; viability, T/C [19]: 65.3%; viability, T/C [20]: 73.9%; viability, T/C [21]: 65.3%; viability, T/C [22]: 69%; viability, T/C [23]: 66.3%; viability, T/C [24]: 33%; viability, T/C [25]: 64.1%; viability, T/C [26]: 66.1%; viability, T/C [27]: 69.8%; viability, T/C [28]: 62.2%; viability, T/C [29]: 46.6%; viability, T/C [30]: 3.55%
2 | COc1cc(Nc2ncc3c(n2)-c2ccc(Cl)cc2C(c2c(F)cccc2OC)=NC3)ccc1C(=O)O + CNCc1ccccc1-c1csc(C(C)Nc2nc(C)nc3cc(OC)c(OC)cc23)c1 | 82.8 | 83.4 | 87.1 | < 31.6 | < 31.6 | 80 | 40.1 | 29.3 | 26.2 | 18.5 | 9.63 | 77.9 | 39.5 | 31.1 | 27 | 17.7 | 9.95 | 82 | 39.5 | 32.8 | viability, T/C [16]: 28.6%; viability, T/C [17]: 21.6%; viability, T/C [18]: 9.92%; viability, T/C [19]: 49.5%; viability, T/C [20]: 22.9%; viability, T/C [21]: 20.6%; viability, T/C [22]: 12.5%; viability, T/C [23]: 6.88%; viability, T/C [24]: 4.66%; viability, T/C [25]: 0.15%; viability, T/C [26]: 0.13%; viability, T/C [27]: 0.12%; viability, T/C [28]: 0.1%; viability, T/C [29]: 0.11%; viability, T/C [30]: 0.14%
